Like-named read-outs stand apart in the source and are kept apart here.
Tests used:
Phosphorylated eIF4E = assay: peIF4E signaling cellular assay (CisBio peIF4E HTRF); format: cell-based; conditions: 2 hrs incubation at 37° C., 12-point curve 20 μM to 0.1 nM; read-out: pEI4IE signaling activity
Description: Phosphorylated eIF4E is assayed using the CisBio peIF4E HTRF® assay kit (CisBio, catalogue No. 64EF4PEG). Cells are plated in 96-well tissue-culture treated plate in appropriate growth medium (90 μL). Compounds (10×) are diluted using 3-fold serial dilutions in cell culture medium and added to cells. Plates are incubated for 2 hrs at 37° C. The cell supernatant is carefully removed either by aspirating supernatant or by flicking the plate. Immediately 50 μL of supplemented lysis buffer (1×) is added and incubated for at least 30 minutes at room temperature under shaking. After homogenization by pipeting up and down, 16 μL of cell lysate is transferred from the 96-well cell-culture plate to a 384-well small volume white plate. 4 μL of premixed antibody solutions (vol/vol) is prepared in the detection buffer and added. The plate is covered with a plate sealer and incubated overnight at room temperature. The fluorescence emissions at two different wavelengths are read (665 nm and 620 nm) on a Wallac Victor2. Emission ratios are converted into percent inhibitions and imported into GraphPad Prism software. […] IC50 values are determined using a nonlinear regression model available in GraphPad Prism 5.
To this end, IC50 values of less than 0.001 μM are labelled as “+++”, from 0.001 to 0.01 μM are labelled as “++”, and greater than 0.01 μM are labelled as “+” (NA means “not available”).

[1] = High throughput thermodynamic solubility procedure; format: physicochemical; conditions: for solubility at 18 h: thermodynamic from solid, 18 hours incubation, theoretical maximum 10 mM; for solubility in fasted state simulated gastric fluid (FaSSGF), in words: pH value of 1.6
Description: In a 96-well plate, 10 mM DMSO stocks (50-100 uL) of each compound were dried under heated nitrogen flow using a SPE-96 plate dryer (upper flow rate=50 L/min, temperature=60° C., lower flow rate=20 L/min, temperature=80° C.). […] Compounds prepared as the free base were assessed in conditions with and without one equivalent of TFA added. The theoretical maximum concentrations of the aqueous solutions were 10 mM. Each well was capped and incubated for a period of 18 hours at room temperature or 37° C. Mixing of the solutions during the incubation period was performed by either shaking the plate at 750 rpm or adding StirStix (stainless steel capillaries) and agitating the mixture using a rotary magnetic tumble stirrer. After the incubation period, aliquots from each well were filtered. Solubility of all samples were quantified following comparison to standards of known concentration by HPLC-UV.

PD-1 = PD-1 (CD279) expression on PHA/PMA-activated Jurkat T cells, flow cytometry; format: cell-based; conditions: Homo sapiens, percentage of inhibition of PD-1 positive cells at 10 μM, 48 hours
Description: To examine the effect of MNK inhibitors on PD-1 expression, Jurkat cells (Clone E6.1, ATCC, transformed T cells) were used, which express PD-1 when activated through T cell receptor (TCR) signaling. Briefly, Jurkat cells were grown in 1×RPMI with 1×Pen/Strep, and 10% FBS, then about 3×10^6 Jurkat cells were activated in presence of 1 μg/mL PHA (Sigma) and 50 ng/mL PMA (Sigma). Test Cells were treated simultaneously with various concentrations of an MNK inhibitor (0, 0.01, 0.1, 1, 3 and 10 μM). After 48 hours, culture supernatants were harvested and examined via sandwich ELISA for the presence of IL-2 using human IL-2 ELISA DuoSet (R&D Systems, Minneapolis, Minn.). The level of PD-1 on Jurkat cells was examined by incubating with human FcR block, then contacted with allophycocyanin (APC) conjugated anti-PD-1 antibody (5 μl per 100 μl volume of test, Biolegend, San Diego, CA) for 25 minutes at 4° C., without washing the cells, fixable dead cell stain (1:10,000; BD Biosciences, San Jose, CA) was added and incubated further for 10 minutes at 4° C. Cells were washed two times with flow buffer, and finally cells were fixed with fixation buffer for 15 minutes at 4° C. After fixation, cells were washed twice with flow buffer and re-suspended in flow buffer and assessed for fluorescence using BD Accuri C6 flow cytometer. Data were analyzed using the C6 cytometer software (BD Biosciences, San Jose, CA) or Attune Nxt Cytometer (Invitrogen, Carlsbad, CA).
Activation of Jurkat T cells with PHA and PMA induced the expression of PD-1 on the cell surface of about 25-30% of the stimulated Jurkat cells as compared to uninduced cells (Unstim) and induced a 1,000-fold increase in IL-2 cytokine production, respectively. […] Lastly, MNK inhibition by various different MNK inhibitors had no effect on cell viability. […] To this end, percentage of inhibition of PD-1 positive cells (10 μM) of more than 50% are labelled as “+++”, from 10% to 50% are labelled as “++”, and less than 10% are labelled as “+” (NA means “not available”).

[2] = Fasted-State Simulated Intestinal Fluid (FaSSIF), pH 6.5, fassif, Fasted-State Simulated Intestinal Fluid, read-out: Aqueous Solubility FaSSIF (pH 6.5)
[3] = deionized water, read-out: Aqueous Solubility DI H2O

Structure (SMILES)	IC50 (Phosphorylated eIF4E)	solubility at 18 h [1, 2]	solubility at 18 h [1, 3]	solubility in fasted state simulated gastric fluid (FaSSGF), in words [1]	inhibition at 10 µM (PD-1)
Cc1cc(Nc2ncnc(N)c2Cl)c(=O)n2c1C(=O)NC21CCN(C)CC1(C)C (stereo not shown) [Compound 3DD]	< 1 nM	130 µM	2100 µM		> 50%
Cc1cc(Nc2ncnc(N)c2Cl)c(=O)n2c1C(=O)N[C@]21CCCNC1 [Compound 3K]	> 10 nM	158 µg/mL	1530 µg/mL	excellent solubility	> 50%
Cc1cc(Nc2ncnc(N)c2Cl)c(=O)n2c1C(=O)N[C@@]21CCCNC1 [Compound 3L]	1 to 10 nM	70 µM	3200 µM	excellent solubility	> 50%

More lines, main results first:

IC50 (Phosphorylated eIF4E)	solubility at 18 h [1, 2]	solubility at 18 h [1, 3]	solubility in fasted state simulated gastric fluid (FaSSGF), in words [1]	Structure (SMILES)	inhibition at 10 µM (PD-1)
1 to 10 nM	18 µM			Cc1cc(Nc2ncnc(N)c2C)c(=O)n2c1C(=O)NC21CCN(CC2(F)CC2)CC1 [Compound 3HH]	< 10%
1 to 10 nM	600 µM	4200 µM		Cc1cc(Nc2ncnc(N)c2Cl)c(=O)n2c1C(=O)NC21CNCCC1(C)C (stereo not shown) [Compound 3S]	> 50%
> 10 nM	500 µM	10000 µM		Cc1cc(Nc2ncnc(N)c2C)c(=O)n2c1C(=O)NC21CNCCC1(C)C (stereo not shown) [Compound 3T]	10 to 50%

— US11878015B2, “Piperidine-substituted Mnk inhibitors and methods related thereto” (eFFECTOR Therapeutics Inc., priority 2017, dated 2024)
